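Test compounds were applied to cells in 96-well plates for 48 hours at 5 doses. Abbreviation: GI50, concentration required for 50% inhibition of growth. At the TGI there is no net growth.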

The test system of the first test is HCC-2998 colon. Kind of test: NCI-60 cell line screen, 48 h.
As for `COC(=O)C1=C(C)NC(C)=C(C(=O)OCCCN2CCC(c3ccccc3)(c3ccccc3)CC2)C1c1cccc([N+](=O)[O-])c1` (stereo not given), the TGI was found to be 4.58 µM.
Turning to `N=Nc1c(OC(=O)Nc2cccc(Cl)c2)[nH]c2ccccc12`, the TGI worked out at 17.5 µM.
Compound `CC1(C)C2CCC(=O)C1CC2` (stereo not given) returned a TGI above 100 µM.
For `Fc1cc2[nH]ncc2c2c3c(c(-c4cn[nH]c4)nc12)CCCC3`, the GI50 is 1.52 µM and the TGI was determined as 5.75 µM.
As for `CCN1CCN(c2nc(C)cc(N(CCNc3ccnc4cc(Cl)ccc34)Cc3ccc4c(c3)OCO4)n2)CC1`, the GI50 was 2.03 µM and the TGI amounted to 3.96 µM.
Regarding `CCN(CC)c1ccc(-c2cc(-c3cc(OC)c(OC)c(OC)c3)nc(N3CCOCC3)c2C#N)cc1`, the GI50 was 1.97 µM and the TGI was determined as 11.1 µM.
`C=C(Br)C(C)(Br)CCC(Br)C(C)(C)Cl` (stereo not given) showed a TGI of 32.7 µM.
Consider `O=C(CCc1nnc2sc(-c3ccc(Cl)cc3Cl)nn12)c1nc2ncccc2[nH]1`, for which the GI50 was 1.77 µM and the TGI is 3.32 µM.
The like results for `COc1ccc(-c2nnc(COc3ccc(C(=O)/C=C/c4ccco4)cc3)o2)cc1` were, in that order, 2.32 µM and 5.26 µM.
`OCc1ccc(-c2ccc(-c3ccc(CO)s3)o2)s1` yielded a TGI of 4.02 µM.

In another test the test system is K-562 leukemia. Kind of test: NCI-60 cell line screen, 48 h.
For the compound `CN1CCN(CCCn2c(=O)c3sc4ncccc4c3n3nnc(-c4ccccc4)c23)CC1`, the GI50 is 0.881 µM and the TGI is 2.05 µM.
Turning to `NC1(C(=O)OCc2ccccc2)CCCC1`, the TGI worked out at 59.6 µM.
With `O=C(/C=C/c1ccc(Cl)cc1)c1ccc(Nc2ccnc3cc(Cl)ccc23)cc1`, the GI50 was 4.98 µM and the TGI is above 100 µM.
Turning to `CCCCCCCC(=O)SCC/C=C/[C@@H]1CC(=O)NCc2cc(ccn2)C2=N[C@@](C)(CS2)C(=O)N[C@@H](C(C)C)C(=O)O1`, the GI50 was 0.0248 µM and the TGI is above 33.3 µM.
As for `CSc1nc(NC2OCC(OC(C)=O)C(OC(C)=O)C2OC(C)=O)c(N=CC=Nc2c(NC3OCC(OC(C)=O)C(OC(C)=O)C3OC(C)=O)nc(SC)[nH]c2=O)c(=O)[nH]1` (stereo not given), the TGI is above 100 µM.
`N#CC(C#N)=CNC(N)=S`: the TGI was above 100 µM.
Consider `O=C1OC(O)[C@@H]2[C@H]1[C@H]1CC[C@@H]2O1` (stereo not given in full), for which the GI50 was above 100 µM and the TGI was above 100 µM.
Consider `O=C1c2cc3c(cc2-c2c1c1ccc(F)cc1c(=O)n2CCCNCCO)OCO3`, for which the GI50 was 0.0373 µM and the TGI is 1.36 µM.
`COC(=O)C1=C(C)NC(C)=C(C(=O)OCCCN2CCC(c3ccccc3)(c3ccccc3)CC2)C1c1cccc([N+](=O)[O-])c1` (stereo not given): the TGI was above 100 µM.
`N=Nc1c(OC(=O)Nc2cccc(Cl)c2)[nH]c2ccccc12` gave a TGI above 52.8 µM.
The same measure, in the same setting: to `CC1(C)C2CCC(=O)C1CC2` (stereo not given) belongs above 100 µM.
As to `Fc1cc2[nH]ncc2c2c3c(c(-c4cn[nH]c4)nc12)CCCC3`, the GI50 is 1.55 µM and the TGI is above 100 µM.
For `CCN1CCN(c2nc(C)cc(N(CCNc3ccnc4cc(Cl)ccc34)Cc3ccc4c(c3)OCO4)n2)CC1`, the GI50 was 0.913 µM and the TGI worked out at 2.76 µM.
For the compound `CCN(CC)c1ccc(-c2cc(-c3cc(OC)c(OC)c(OC)c3)nc(N3CCOCC3)c2C#N)cc1`, the GI50 was 1 µM and the TGI is above 19.9 µM.
The compound `C=C(Br)C(C)(Br)CCC(Br)C(C)(C)Cl` (stereo not given) registered a TGI above 47.5 µM.
`O=C(CCc1nnc2sc(-c3ccc(Cl)cc3Cl)nn12)c1nc2ncccc2[nH]1`: the GI50 is 2.44 µM and the TGI is above 100 µM.
As for `COc1ccc(-c2nnc(COc3ccc(C(=O)/C=C/c4ccco4)cc3)o2)cc1`, the GI50 was 2.77 µM and the TGI is 7.45 µM.
In turn, `OCc1ccc(-c2ccc(-c3ccc(CO)s3)o2)s1` showed a TGI of 38.3 µM.

The next test deals with KM12 colon. The test is described as follows: NCI-60 cell line screen, 48 h.
For `CN1CCN(CCCn2c(=O)c3sc4ncccc4c3n3nnc(-c4ccccc4)c23)CC1`, the GI50 is 4.24 µM and the TGI is 10.7 µM.
`NC1(C(=O)OCc2ccccc2)CCCC1` displayed a TGI above 100 µM.
Take `O=C(/C=C/c1ccc(Cl)cc1)c1ccc(Nc2ccnc3cc(Cl)ccc23)cc1`: the GI50 was 4.61 µM and the TGI was determined as 44.3 µM.
Take `CCCCCCCC(=O)SCC/C=C/[C@@H]1CC(=O)NCc2cc(ccn2)C2=N[C@@](C)(CS2)C(=O)N[C@@H](C(C)C)C(=O)O1`: the GI50 is 0.0169 µM and the TGI was found to be 2.41 µM.
The compound `CSc1nc(NC2OCC(OC(C)=O)C(OC(C)=O)C2OC(C)=O)c(N=CC=Nc2c(NC3OCC(OC(C)=O)C(OC(C)=O)C3OC(C)=O)nc(SC)[nH]c2=O)c(=O)[nH]1` (stereo not given) returned a TGI above 100 µM.
The compound `N#CC(C#N)=CNC(N)=S` yielded a TGI above 100 µM.
For the compound `O=C1OC(O)[C@@H]2[C@H]1[C@H]1CC[C@@H]2O1` (stereo not given in full), the GI50 is 21.5 µM and the TGI was 72.8 µM.
Regarding `O=C1c2cc3c(cc2-c2c1c1ccc(F)cc1c(=O)n2CCCNCCO)OCO3`, the GI50 is 0.0646 µM and the TGI came out at 1.06 µM.
In turn, `COC(=O)C1=C(C)NC(C)=C(C(=O)OCCCN2CCC(c3ccccc3)(c3ccccc3)CC2)C1c1cccc([N+](=O)[O-])c1` (stereo not given) had a TGI of 3.21 µM.
Turning to `N=Nc1c(OC(=O)Nc2cccc(Cl)c2)[nH]c2ccccc12`, the TGI was found to be 14.3 µM.
`CC1(C)C2CCC(=O)C1CC2` (stereo not given) had a TGI above 100 µM.
As to `Fc1cc2[nH]ncc2c2c3c(c(-c4cn[nH]c4)nc12)CCCC3`, the GI50 was 1 µM and the TGI is 7.38 µM.
For the compound `CCN1CCN(c2nc(C)cc(N(CCNc3ccnc4cc(Cl)ccc34)Cc3ccc4c(c3)OCO4)n2)CC1`, the GI50 is 3.97 µM and the TGI is 15.2 µM.
For the compound `CCN(CC)c1ccc(-c2cc(-c3cc(OC)c(OC)c(OC)c3)nc(N3CCOCC3)c2C#N)cc1`, the GI50 is 1.99 µM and the TGI was above 85.9 µM.
As to `C=C(Br)C(C)(Br)CCC(Br)C(C)(C)Cl` (stereo not given), the TGI came to 32 µM.
Take `O=C(CCc1nnc2sc(-c3ccc(Cl)cc3Cl)nn12)c1nc2ncccc2[nH]1`: the GI50 is 1.83 µM and the TGI was determined as 3.56 µM.
With `COc1ccc(-c2nnc(COc3ccc(C(=O)/C=C/c4ccco4)cc3)o2)cc1`, the GI50 was 1.75 µM and the TGI came out at 3.62 µM.

(Values after PubChem BioAssay (NCI).)
